# Experimental data as given in patent US20150073038A1 (Marina Biotech, Inc., priority 2009, published 2015).
# Tests used:
# [1] = TNS dye assay for pKa; type: physicochemical; details: pH 3.0 to 11.0, 30 min at 37° C.; for pKa as measured by TNS dye assay: liposome test sample; for pKa: liposomes of the lipid with TNS dye in universal buffer, pH 3, liposome test sample, read-out: pKa as measured by TNS dye assay
# Experimental: To measure pH responsive fluorescence, a TNS/Liposome reaction mixture was prepared as follows: 16 μL of TNS at 1 mg/mL (dissolved in 20% DMF), 160 μL of liposome test sample at 1 mM and 3824 μL of H20. Briefly, in a Costar 96 well plate; 100 μL/well of 2× universal buffer was added (50 mM Citrate; 40 mM sodium phosphate; 40 mM ammonium acetate; 300 mM NaCl, the 2× buffer was titrated to different pHs, at 0.5 pH increments from pH 3.0 to pH 11.0 using NaOH or HCl). To each well containing the 100 of universal buffer, 100 μL of the TNS/Liposome reaction mixture is then added to achieve a final volume of 200 μL, a TNS concentration of 5.92 μM and a final lipid concentration of 20 μM per well. After 30 min at 37° C. the fluorescence was read at an excitation wavelength of 322 nm and emission wavelength of 431 nm. The pKa was determined at the pH corresponding to the midpoint between the maximum and the minimum fluorescence intensity, utilizing sigmoidal fit software.
# TNS dye (2,6-TNS (2-(p-toluidinyl)naphthalene-6-sulfonic acid, sodium salt; Invitrogen T53; MW 335.4).
# [2] = tested on: ApoB in Hep3B cells; assay: In vitro gene silencing activity, formulation with UsiRNA against ApoB in Hep3B cells, quantitative RT-PCR; type: cell-based; details: UsiRNA DX10008, Hep3B, 24 h
# Experimental: The methodology for determining the in vitro gene silencing activity of an activity-generating delivery molecule was as follows: Hep3B cells were transfected in triplicate, 96-well format with a formulation of the activity-generating delivery molecule and a UsiRNA against ApoB. After 24 h, cellular RNA was prepared and evaluated by quantitative RT-PCR for target ApoB and the normalizer 36B4 or GAPDH expression levels.
# The in vitro activity was generated with a UsiRNA against ApoB in Hep3B cells.
# [3] = tested on: Factor VII mRNA; assay: In vivo gene knockdown in Balb/c mice, tail-vein injection of formulation with UsiRNA; design: species or system mouse; details: DMPE-PEG2k 2 mole %, UsiRNA against Factor VII mRNA
# From the text: In vivo gene knockdown activity was generated in Balb/c mice administered by tail-vein injection with a formulation including the activity-generating delivery molecule and a UsiRNA against Factor VII mRNA.
# [4] = tested on: Factor VII; assay: In vivo gene-silencing dose-response, UsiRNA against Factor VII in formulation, tail-vein injection; design: species or system mouse; details: normal Balb/c mice, single tail-vein IV injection, serum F-VII at 48 hr post dose; dose as active UsiRNA per kg; formulated with cholesterol, C18:2-DAB-C16, DSPE-PEG2k 51:31:17:1 mole %
# Experimental: In FIG. 1 is shown a chart of the gene-silencing dose-response in vivo mouse for a UsiRNA against Factor VII administered by tail-vein injection in a formulation including the activity-generating delivery molecule C18:2-DAP(N,N-diMe)-C18:2. The calculated ED50 was 30 μg/kg. The x-axis of FIG. 1 refers to mgA/kg which is by pharmaceutical convention the mg of active UsiRNA per kg body weight. Here it refers to the fraction of UsiRNA that is duplexed, and encapsulated or carried by the activity-generating delivery molecules.
# Animals were each administered a single tail-vein IV injection, and sacrificed at 48 hr post dose for analysis of serum F-VII.
# The activity-generating molecule C18:2-DAP(N,N-diMe)-C18:2 was formulated with cholesterol, a second activity-generating molecule C18:2-DAB-C16, and DSPE-PEG2k at concentrations of 51:31:17:1 mole %, respectively.
# [5] = DSC measurement of 2nd melting behavior; type: physicochemical; details: heat/cool/heat cycle
# Experimental: The 2nd melting behavior of activity-generating delivery molecules was assessed on a TA Instruments Q200 Differential Scanning calorimeter in a heat/cool/heat cycle by weighing 0.5 to 1.5 mg of the powder into an aluminum pan and heating to 175° C. at 20° C./min., cooling to −50° C. at 10° C./min., and heating to 200° C. at 20° C./min.
# Without intending to be bound by any particular theory, the melting behavior of an activity-generating delivery molecule may relate to its ability to form lamellar, bilayer, or other ordered structures which can be useful for carrying an active agent to interact with, and enter a cellular compartment to generate pharmacological or biological activity. […] A substance having less ordered structures may provide greater membrane fusion ability which can be needed for delivery of the active agent to a cell. Thus, differential scanning calorimetry can be used to distinguish the properties of compounds with certain significant thermotropic phases or transitions from compounds with different properties and less significant thermotropic phases or transitions.
# [6] = delivery molecule 25.00 mole %, CHOL 75.00 mole %
# [7] = delivery molecule 25.00 mole %, DOPE 75.00 mole %
# [8] = delivery molecule 33.33 mole %, CHOL 66.66 mole %
# [9] = delivery molecule 33.33 mole %, DOPE 66.66 mole %
# [10] = delivery molecule 50.00 mole %, CHOL 50.00 mole %
# [11] = delivery molecule 50.00 mole %, DOPE 50.00 mole %
# [12] = delivery molecule 66.66 mole %, CHOL 33.33 mole %
# [13] = delivery molecule 66.66 mole %, DOPE 33.33 mole %
# [14] = delivery molecule 75.00 mole %, CHOL 25.00 mole %
# [15] = delivery molecule 75.00 mole %, DOPE 25.00 mole %
Compound,pKa as measured by TNS dye assay [1],pKa [1],"In vitro Gene Knockdown % [2, 6]","In vitro Gene Knockdown % [2, 7]","In vitro Gene Knockdown % [2, 8]","In vitro Gene Knockdown % [2, 9]","In vitro Gene Knockdown % [2, 10]","In vitro Gene Knockdown % [2, 11]","In vitro Gene Knockdown % [2, 12]","In vitro Gene Knockdown % [2, 13]","In vitro Gene Knockdown % [2, 14]","In vitro Gene Knockdown % [2, 15]","In vivo Gene Knockdown % ([3]; delivery molecule 49 mole %, CHOL 49 mole %)","In vivo Gene Knockdown % ([3]; delivery molecule 65.3 mole %, CHOL 32.7 mole %)","calculated ED50, gene silencing in vivo [4]","2nd melting behavior, thermal transitions by differential scanning calorimetry [5]"
"CCCCC/C=C\C/C=C\CCCCCCCCNC(=O)C(CN)NC(=O)CCCCCCC/C=C\C/C=C\CCCCC (stereo not drawn) [C18:2-DAP-C18:2, (9Z,12Z)—N-(3-amino-1-((9Z,12Z)-octadeca-9,12-dien-1-ylamino)-1-oxopropan-2-yl)octadeca-9,12-dienamide]",,7.6,,,,,,,,,,,,,,
"CCCCCC=CCC=CCCCCCCCC(=O)NC(CN(C)C)C(=O)NCCCCCCCCC=CCCCCCCCC (stereo not drawn) [C18:2-DAP(Me,Me)-C18:1]",5.3,,90%,86%,91%,87%,88%,84%,91%,85%,,84%,,,,
"CCCCC/C=C\C/C=C\CCCCCCCCNC(=O)C(CCN)NC(=O)CCCCCCC/C=C\C/C=C\CCCCC (stereo not drawn) [C(18:2)oleoyl-DAB-C(18:2)alkenylamino, (9Z,12Z)—N-(4-amino-1-((9Z,12Z)-octadcca-9,12-dien-1-ylamino)-1-oxobutan-2-yl) octadeca-9,12-dienamide]",,,,,,,,,,,,,,,,complete lack of thermal transition peaks
"CCCCC/C=C\C/C=C\CCCCCCCC(=O)NC(CN)C(=O)NCCCCCCCC/C=C\CCCCCCCC (stereo not drawn) [C18:2-Dap(NH3 + Cl—)-C18:1, (9Z,12Z)—N-(3-amino-1-((Z)-octadec-9-en-1-ylamino)-1-oxopropan-2-yl)octadeca-9,12-dienamide]",,,64%,85%,62%,83%,56%,83%,61%,69%,52%,48%,,,,
"CCCCCCCCCCCCCCCCCCNC(=O)C(CCNC(=N)N)NC(=O)CCCCCCCCCCCCCCCCC (stereo not drawn) [CH3(CH2)16(CO)-norArg-NH(CH2)17CH3, reference compound]",,,,,,,,,,,,,,,,presence of significant thermal or melting transitions

# Second part, led by results:
pKa as measured by TNS dye assay [1],pKa [1],Compound,"In vitro Gene Knockdown % [2, 6]","In vitro Gene Knockdown % [2, 7]","In vitro Gene Knockdown % [2, 8]","In vitro Gene Knockdown % [2, 9]","In vitro Gene Knockdown % [2, 10]","In vitro Gene Knockdown % [2, 11]","In vitro Gene Knockdown % [2, 12]","In vitro Gene Knockdown % [2, 13]","In vitro Gene Knockdown % [2, 14]","In vitro Gene Knockdown % [2, 15]","In vivo Gene Knockdown % ([3]; delivery molecule 49 mole %, CHOL 49 mole %)","In vivo Gene Knockdown % ([3]; delivery molecule 65.3 mole %, CHOL 32.7 mole %)","calculated ED50, gene silencing in vivo [4]","2nd melting behavior, thermal transitions by differential scanning calorimetry [5]"
6.6,,"CCCCC/C=C\C/C=C\CCCCCCCCNC(=O)C1CC(N(C)C)CN1C(=O)CCCCCCC/C=C\C/C=C\CCCCC (stereo not drawn) [C18:2-aminoPro(N—Me,N—Me)-C18:2]",79%,66%,72%,74%,62%,82%,53%,73%,59%,68%,68%,48%,,
,4.9,"CCCCC/C=C\C/C=C\CCCCCCCCNC(=O)C(N)NC(=O)CCCCCCC/C=C\C/C=C\CCCCC (stereo not drawn) [C18:2-DAA-C18:2, (9Z,12Z)—N-(1-amino-2-((9Z,12Z)-octadeca-9,12-dien-1-ylamino)-2-oxoethyl) octadeca-9,12-dienamide]",,,,,,,,,,,,,,
,5.8,CCCCC/C=C\C/C=C\CCCCCCCCNC(=O)C(CN(C)C)NC(=O)CCCCCCC/C=C\C/C=C\CCCCC (stereo not drawn),6%,,,86%,19%,87%,19%,81%,,18%,,,0.03 mg/kg,
,6,"CCCCCCCC/C=C\CCCCCCCCNC(=O)C(CN)NC(=O)CCCCCCC/C=C\CCCCCCCC (stereo not drawn) [C18:1-DAP(NH3 + Cl—)-C18:1, N-(3-amino-1-((Z)-octadec-9-en-1-ylamino)-1-oxopropan-2-yl)oleamide]",83%,81%,80%,83%,73%,82%,76%,72%,79%,77%,,,,
